# Legend:
# human recombinant DGK ξ = human recombinant DGK ξ (Homo sapiens (Human), UniProt Q13574); assay: Evaluation of DGK ξ inhibitory effect (ADP-Glo Kinase Assay); format: biochemical
# Description: Test Example 1: Evaluation of DGK ξ Inhibitory Effect
# The inhibitory effect of a test compound on human recombinant DGK ξ (Carna Biosciences, Inc., 12-410-20N) was examined by the following method in which detection is performed with ADP-Glo™ Kinase Assay (Promega Corporation).
# To a 384-well plate (Greiner Bio-One Co., Ltd.), 3 μL of a […] dissolved in an assay buffer (40 mM Tris-HCl pH 7.5, 10 mM MgCl2, 1 mM dithiothreitol (DTT) and 0.1 mg/mL bovine serum albumin (BSA)) (90 ng/mL) was added, and 3 μL of the test compound diluted with the same assay buffer was added so that an intended final concentration was obtained. The mixture was left standing at room temperature for 15 minutes, 3 μL of a substrate (150 μM 1-oleoyl-2-acetyl-sn-glycerol (Sigma-Aldrich Co. LLC.), 480 μM phosphatidylserine (Avanti Polar Lipids, Inc.) and 150 μM UltraPure-ATP (attached to ADP-Glo)) was then added, and the mixture was left standing at room temperature for 30 minutes to react. Thereafter, 3 μL of an ADP-Glo Reagent was added, and the mixture was left standing at room temperature for 40 minutes to stop the enzyme reaction. Further, 6 μL of a Kinase-Detection Reagent was added, the mixture was left standing at room temperature for 30 minutes, and the luminescence was then measured using ARVO X3 (PerkinElmer, Inc.). The half maximal inhibitory concentration (IC50) was calculated by Sigmoid-Emax model non-linear regression analysis, where the signal value in solvent treatment was set to 0% inhibition and the signal value without addition of the DGK ξ enzyme was set to 100% inhibition. […] In the table, Ex represents the number of each Example described below. Also, in the table, compound C (cpd. C) represents the test compound of the Example 199 described in the international publication WO 2008/054702.
# Jurkat E6.1 cells = assay: Evaluation of IL-2 production in human T cell leukemia cell line Jurkat E6.1 (TCR stimulation anti-CD3/anti-CD28); format: cell-based; settings: concentration at which IL-2 increased to 10 times the solvent control, Jurkat E6.1, anti-CD3/anti-CD28, 24 hours, read-out: EC10fold
# Description: Test Example 2: Evaluation of IL-2 Production in Human T Cell Leukemia Cell Line Jurkat E6.1
# The effect of the test compound on the IL-2 production by T cell receptor (TCR) stimulation (anti-CD3/anti-CD28) in Jurkat E6.1 cells (ECACC, 88042803) was evaluated.
# A 5 μg/mL anti-CD3 antibody (eBioscience, Inc., OKT3 clone) diluted with phosphate buffer saline (PBS) was added to a 96-well plate (Iwaki & Co., Ltd.) at 50 μL/well, and left standing at 4° C. for 12 hours or more to provide an anti-CD3 antibody-coated plate in advance. When the plate was used for experiments, the plate was washed with 200 μL of PBS once, an anti-CD28 antibody (eBioscience, Inc., 28.2 clone) diluted to a concentration of […] with a culture medium (RPMI1640 (Sigma-Aldrich Co. LLC.) containing 10% fetal bovine serum (Hyclone Laboratories, Inc.)) was then added at 10 μL/well, and the plate was used for assay as a culture plate for TCR stimulation.
# Subsequently, the test compound was mixed with Jurkat E6.1 cells in such a manner that an intended final concentration was obtained, and the mixture was plated at 90 μL/well so that the number of cells per well was 1×10^5 (that is, finally the culture was performed at 1×10^5 cells/100 μL/well). For culture cell conditions, the culture was performed at 37° C. in the presence of 5% CO2 using RPMI1640 medium containing 10% fatal bovine serum.
# After 24 hours, the culture supernatant was collected, and IL-2 was quantitatively determined using AlphaLISA human IL2 Immunoassay Research Kit (PerkinElmer, Inc.). The IL-2 measurement was performed under Alpha Screen standard setting conditions (the fluorescence intensity at 570 nm was measured with an excitation wavelength of 680 nm) using EnVision 2104-0010 and EnVision 2104-0020 (PerkinElmer, Inc.). The IL-2 quantitative value of the solvent treatment control was set to 1, and the test compound concentration at which the IL-2 quantitative value of the test compound treatment sample increased to 10 times the IL-2 quantitative value of the control (EC10fold) was calculated by inverse estimation with the aid of Sigmoid-Emax model non-linear regression analysis. […] In the table, Ex represents the number of each Example described below.
# MC38 cells = assay: Antitumor effect in syngeneic mouse model bearing mouse colon adenocarcinoma cell line MC38; format: in vivo; settings: relative tumor growth inhibition, MC38, C57BL/6J mice, oral, twice a day day 1-10 and once on day 11
# Description: Test Example 3: Evaluation of Antitumor Effect in Syngeneic Mouse Model Bearing Mouse Colon Adenocarcinoma Cell Line MC38
# A cell suspension liquid prepared by suspending MC38 cells (supplied from National Cancer Institute) in PBS at 4.0×10^6 cells/mL was subcutaneously inoculated into 6-week-old female mice (C57BL/6J from Charles River Laboratories Japan, Inc.) in a volume of 50 μL. 4 days after the inoculation, the mice were grouped in such a manner that there was substantially no difference in tumor volume between groups, and administration of the test compound was started. The test was conducted with a solvent group and a test compound administration group each having 10 mice. 0.5% methylcellulose (Shin-Etsu Chemical Co., Ltd.) was orally administered to the solvent group, and 0.5% methylcellulose mixed with the test compound was orally administered to the test compound administration group. The administration was performed twice a day from day 1 to day 10 and once a day on day 11, and the tumor diameter and the body weight were measured twice a week. The following expression was used for calculation of the tumor volume. [tumor volume (mm^3)]=[tumor major diameter (mm)]×[tumor minor diameter (mm)]^2×0.5
# The relative tumor growth inhibition (%) of the test compound was calculated, where the tumor volume of the test compound administration group immediately before the start of administration was set to 100% inhibition, and the tumor volume of the solvent group on the last day of administration was set to 0% inhibition. […] In the table, Ex represents the number of each Example described below.
# B16-F1 cells = assay: Antitumor effect in syngeneic mouse model bearing mouse melanoma cell line B16-F1; format: in vivo; settings: relative tumor growth inhibition, B16-F1, oral
# Description: Test Example 4: Evaluation of Antitumor Effect in Syngeneic Mouse Model Bearing Mouse Melanoma Cell Line B16-F1
# A cell suspension liquid prepared by suspending B16-F1 cells (ATCC, CRL-6323) in PBS at 2.0×10^6 cells/mL or 1.0×10^7 cells/mL was subcutaneously inoculated into 5-week-old female mice (C57BL/6J from Charles River Laboratories Japan, Inc.) in a volume of 50 μL. 5 days after the inoculation, the mice were grouped in such a manner that there was substantially no difference in tumor volume between groups, and administration of the test compound was started. The test was conducted with a solvent group and a test compound administration group each having 10 mice. 0.5% methylcellulose was orally administered to the solvent group, and 0.5% methylcellulose mixed with the test compound was orally administered to the test compound administration group. The administration was performed according to the regimen described in Table 4, and the tumor diameter and the body weight were measured twice a week. The following expression was used for calculation of the tumor volume. [tumor volume (mm^3)]=[tumor major diameter (mm)]×[tumor minor diameter (mm)]^2×0.5
# The relative tumor growth inhibition (%) of the test compound was calculated, where the tumor volume of the test compound administration group immediately before the start of administration was set to 100% inhibition, and the tumor volume of the solvent group on the day after the last administration was set to 0% inhibition. […] In the table, Ex represents the number of each Example described below.
# human recombinant DGK ξ, sequence (Q13574 whole entry): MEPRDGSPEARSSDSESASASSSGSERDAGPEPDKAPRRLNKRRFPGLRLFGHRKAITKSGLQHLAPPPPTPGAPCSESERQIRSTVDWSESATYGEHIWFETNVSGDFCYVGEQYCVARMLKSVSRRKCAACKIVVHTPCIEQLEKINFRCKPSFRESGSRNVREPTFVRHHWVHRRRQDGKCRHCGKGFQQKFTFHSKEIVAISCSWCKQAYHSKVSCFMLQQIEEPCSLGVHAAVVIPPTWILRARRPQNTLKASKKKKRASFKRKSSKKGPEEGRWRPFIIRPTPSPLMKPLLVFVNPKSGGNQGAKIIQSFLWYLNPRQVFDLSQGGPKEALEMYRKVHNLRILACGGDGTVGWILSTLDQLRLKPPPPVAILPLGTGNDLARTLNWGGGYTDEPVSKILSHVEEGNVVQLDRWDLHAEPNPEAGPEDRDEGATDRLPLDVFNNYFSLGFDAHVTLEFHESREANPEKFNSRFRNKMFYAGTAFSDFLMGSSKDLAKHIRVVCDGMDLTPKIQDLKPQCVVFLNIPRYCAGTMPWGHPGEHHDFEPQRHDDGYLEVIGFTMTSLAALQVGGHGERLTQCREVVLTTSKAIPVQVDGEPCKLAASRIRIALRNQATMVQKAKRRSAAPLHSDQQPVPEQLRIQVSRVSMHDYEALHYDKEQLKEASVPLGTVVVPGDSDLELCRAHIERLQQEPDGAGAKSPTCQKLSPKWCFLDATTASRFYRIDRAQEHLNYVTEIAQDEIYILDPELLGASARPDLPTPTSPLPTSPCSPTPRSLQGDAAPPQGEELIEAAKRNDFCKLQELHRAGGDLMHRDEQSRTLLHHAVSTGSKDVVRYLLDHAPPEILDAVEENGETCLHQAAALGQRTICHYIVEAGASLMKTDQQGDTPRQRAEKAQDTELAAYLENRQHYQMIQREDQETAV
SMILES,IC50 (human recombinant DGK ξ) [µM],EC50 (Jurkat E6.1 cells) [µM],Antitumor effect (MC38 cells; 5 mg/kg) [% Inhibition],"Antitumor effect (B16-F1 cells; 0.5 mg/kg, 2/day, 10 days, 5 × 10^5 cells inoculated) [% Inhibition]",Antitumor effect (MC38 cells; 4.7 mg/kg) [% Inhibition],"Antitumor effect (B16-F1 cells; 0.1 mg/kg, 1/day, 8 days, 1 × 10^5 cells inoculated) [% Inhibition]","Antitumor effect (B16-F1 cells; 1.5 mg/kg, 2/day, 10 days, 5 × 10^5 cells inoculated) [% Inhibition]"
"NC[C@@H]1CCCN(c2c(NC(=O)c3csc(-c4ccnnc4)n3)ccc(Oc3ccccc3)c2C(F)(F)F)C1 [Example 9, N-{2-[(3S)-3-(aminomethyl)piperidin-1-yl]-4-phenoxy-3-(trifluoromethyl)phenyl}-2-(pyridazin-4-yl)-1,3-thiazole-4-carboxamide]",0.008,0.018,64,36,,,
CNC[C@@H]1CCCN(c2c(NC(=O)c3csc(-c4ccnnc4)n3)ccc(Oc3ccccc3F)c2C(F)(F)F)C1.Cl [Example 10],0.008,0.173,,,60,42,
NC[C@@H]1CCCN(c2c(NC(=O)c3csc(-c4ccnnc4)n3)ccc(Oc3cccc(F)c3)c2C(F)(F)F)C1 [Example 11],0.019,0.032,63,,,,
NC[C@@H]1CCCN(c2c(NC(=O)c3csc(-c4ccnnc4)n3)ccc(Oc3ccccc3F)c2C(F)(F)F)C1 [Example 33],0.005,0.009,36,,,,
NC[C@H]1CCCN1c1c(NC(=O)c2csc(-c3ccnnc3)n2)ccc(Oc2ccccc2)c1C(F)(F)F [Example 34],0.012,0.03,55,,,,48

# Reference: patent US12227517B2, “Pyridazinyl-thiazolecarboxamide compound” (Astellas Pharma Inc., priority 2019, dated 2025)
